Test results from ChEMBL document CHEMBL3301448, “MMV Malaria Box screening against Toxoplasma gondii and Entamoeba histolytica”.
pIC50: −log10 of the molar value.

Columns and labels:
[1] = test system: Toxoplasma gondii; assay: MMV: A total of 100ul of inoculum was added to each well (parasite/cell ratio, ~10:1; final volume, 200 ul). Six hours after inoculation, nonadherent parasites were removed, and 100 ul of complete DMEM (1% penicillin-streptomycin, 3% FBS) supplemented with inhibitors at different concentrations (2-fold serial dilutions starting from 30 uM) was added to all except the negative-control wells. Positive controls, consisting of pyrimethamine (PYR) and sulfadiazine (SDZ) (20-mg/ml stocks in DMSO), were tested at a 2mg/ml final concentration. Each test was performed in triplicate.; assay type: functional, organism-based; conditions: 6 h
[2] = test system: Entamoeba histolytica; assay: MMV: Primary screening was performed with each compound at a 30 uM final concentration and in triplicate in sealed 96-well polystyrene microtiter plates. Parasite inocula (100 ul) comprising 20000 parasites/ml were added to each well and grown at 37 degrees C in a humidified atmosphere of 5% CO2 for 72 h. Positive controls consisted of metronidazole at 1 mg/ml. The growth of E. histolytica trophozoites in each well was determined microscopically by measuring the diameters of the confluent cells in drug-containing wells relative to those in the nega- tive-control wells.; assay type: functional, organism-based

With `O=C(Nc1ccc(-c2nc3cc(NC(=O)c4ccc(Cl)cc4)ccc3[nH]2)cc1)c1ccc(Cl)cc1` the pIC50 [1] was < 4.52 and the pIC50 [2] was < 4.52.
In the case of `CC1CCN(Cc2ccc(NC(=O)c3cc4ccc5cccnc5c4[nH]3)cc2)CC1`, the pIC50 [1] was < 4.52 and the pIC50 [2] was < 4.52.
With `COc1ccc(Nc2nc(N/N=C/c3ccc(O)cc3)nc(Nc3ccc([N+](=O)[O-])cc3)n2)cc1` the pIC50 [1] was < 4.52 and the pIC50 [2] was < 4.52.
For `Cc1cc(Nc2ccc3ccccc3c2)n2ncnc2n1`, the pIC50 [1] was < 4.52 and the pIC50 [2] was < 4.52.
`COc1ccc(C(=O)C2CC2c2ccc(Cl)cc2)cc1` (stereo unspecified) was tested, and the pIC50 [1] was < 4.52 and the pIC50 [2] was < 4.52.
`CC1(c2ccccc2)Nc2ccccc2-c2nc3ccccc3n21` (stereo unspecified) was tested, and the pIC50 [1] was < 4.52 and the pIC50 [2] was < 4.52.
With `CCCCN(CCCC)S(=O)(=O)c1ccc(NC(=O)c2ccco2)cc1` the pIC50 [1] was 5.97 and the pIC50 [2] was < 4.52.
For `O=C(CCc1ccccc1)c1ccccc1OCC(O)CN1CCCCC1` (stereo unspecified), the pIC50 [1] was < 4.52 and the pIC50 [2] was < 4.52.
`CCN1CCN(c2c(C(=O)c3ccccc3)cnc3cc(OC)c(OC)cc23)CC1` was tested, and the pIC50 [1] was < 4.52 and the pIC50 [2] was < 4.52.
With `COc1cccc(Nc2nc(N)c3ccccc3n2)c1` the pIC50 [1] was 4.55 and the pIC50 [2] was < 4.52.
`COc1ccc(-n2ccnc2SCC(=O)Nc2cc(C)ccc2C)c(OC)c1` was tested, and the pIC50 [1] was < 4.52 and the pIC50 [2] was < 4.52.
With `O=C(CCl)NCCOc1ccc(Cl)cc1Cl` the pIC50 [1] was < 4.52 and the pIC50 [2] was < 4.52.
In the case of `COc1ccc(-c2nonc2NC(=O)c2cccc(C)c2)cc1OC`, the pIC50 [1] was < 4.52 and the pIC50 [2] was < 4.52.
For `O=C(NCC(c1ccsc1)N1CCCCCC1)c1ccc(C(F)(F)F)cc1` (stereo unspecified), the pIC50 [1] was < 4.52 and the pIC50 [2] was < 4.52.
For `CCN(CC)CCn1c(=N)n(CC(O)c2ccc(Cl)c(Cl)c2)c2ccccc21` (stereo unspecified), the pIC50 [1] was < 4.52 and the pIC50 [2] was < 4.52.
`O=C(Nc1ccc(N2CCN(Cc3ccccc3)CC2)cc1)c1cccs1` was tested, and the pIC50 [1] was < 4.52 and the pIC50 [2] was < 4.52.
In the case of `CCOC(=O)c1c(NC(=O)c2ccccc2)sc2c(O)c(CN(CC)CC)ccc12`, the pIC50 [1] was < 4.52 and the pIC50 [2] was < 4.52.
With `OC(CNC1CCCCC1)Cn1c2ccc(I)cc2c2cc(I)ccc21` (stereo unspecified) the pIC50 [1] was < 4.52 and the pIC50 [2] was < 4.52.
For `FC(F)(F)c1cccc(Nc2nc3ccccc3nc2Nc2cccc(C(F)(F)F)c2)c1`, the pIC50 [1] was < 4.52 and the pIC50 [2] was < 4.52.
In the case of `Cc1sc2ncnc(Sc3nc4ccccc4[nH]3)c2c1C`, the pIC50 [1] was 4.86 and the pIC50 [2] was < 4.52.
In the case of `Cc1cc(C)c2nc(N3CCC(C(=O)NCCCN4CCC(N5CCCCC5)CC4)CC3)sc2c1`, the pIC50 [1] was < 4.52 and the pIC50 [2] was < 4.52.
For `Cc1ccc(-c2cc3c(SCC(=O)Nc4cc(C(F)(F)F)ccc4Cl)nccn3n2)cc1`, the pIC50 [1] was < 4.52 and the pIC50 [2] was < 4.52.
In the case of `O=C(NC1CCN(Cc2ccccc2)CC1)c1cc2nc(-c3ccc(Cl)s3)cc(C(F)(F)F)n2n1`, the pIC50 [1] was < 4.52 and the pIC50 [2] was < 4.52.
With `COC(=O)c1ccc(Cl)c2c1C1C=CCC1C(c1cccc3ccccc13)N2` (stereo unspecified) the pIC50 [1] was < 4.52 and the pIC50 [2] was < 4.52.
For `COc1ccc2sc(N(Cc3cccnc3)C(=O)c3ccc(C#N)cc3)nc2c1`, the pIC50 [1] was < 4.52 and the pIC50 [2] was < 4.52.
In the case of `CC(Oc1ccc(NC(=O)c2cccs2)cc1)C(=O)c1ccc(Cl)cc1` (stereo unspecified), the pIC50 [1] was 4.98 and the pIC50 [2] was < 4.52.
For `c1ccc(Cn2c(N=Nc3c(Nc4ccccc4)ccc4ccccc34)nc3ccccc32)cc1`, the pIC50 [1] was 4.87 and the pIC50 [2] was < 4.52.
For `CCC(C)NCC(O)(c1ccc(Cl)cc1)c1ccc(Cl)cc1` (stereo unspecified), the pIC50 [1] was < 4.52 and the pIC50 [2] was < 4.52.
`c1ccc2c(NCCc3c[nH]c4ccccc34)c3ccccc3nc2c1` was tested, and the pIC50 [1] was 5.52 and the pIC50 [2] was < 4.52.
`COc1ccc(Br)cc1C1Nc2ccc3ccccc3c2C2=C1C(=O)CC(c1ccccc1)C2` (stereo unspecified) was tested, and the pIC50 [1] was < 4.52 and the pIC50 [2] was < 4.52.
In the case of `CCc1ccc(CNCC(O)c2ccccc2)cc1` (stereo unspecified), the pIC50 [1] was < 4.52 and the pIC50 [2] was < 4.52.
With `COc1ccc2nc(N)nc(C)c2c1` the pIC50 [1] was < 4.52 and the pIC50 [2] was < 4.52.
`CCCCCCOC(=O)C1=C(C)NC(=O)NC1c1ccccc1F` (stereo unspecified) was tested, and the pIC50 [1] was < 4.52 and the pIC50 [2] was < 4.52.
`CN1CCN(c2ccc(Nc3c4ccccc4nc4ccccc34)cc2)CC1` was tested, and the pIC50 [1] was < 4.52 and the pIC50 [2] was < 4.52.
With `CC(C)(C)C(=O)Nc1ccc(C(=O)Nc2cccc(-c3nc4ccccc4[nH]3)c2)cc1` the pIC50 [1] was < 4.52 and the pIC50 [2] was < 4.52.
In the case of `COCCNC(=O)c1ccc(OC2CCN(Cc3ccc(F)c(F)c3)CC2)c(Cl)c1`, the pIC50 [1] was < 4.52 and the pIC50 [2] was < 4.52.
`Cc1ccc(Cl)cc1N1CCN(CCCNC(=O)C2CCN(c3nc4ccccc4[nH]3)CC2)CC1` was tested, and the pIC50 [1] was < 4.52 and the pIC50 [2] was < 4.52.
In the case of `CC(C)(C)c1ccc(C(=O)Nc2c3c(nn2-c2cccc(Cl)c2)CSC3)cc1`, the pIC50 [1] was < 4.52 and the pIC50 [2] was < 4.52.
For `Cc1cc(NC(=O)c2ccc(-c3ccccc3)cc2)no1`, the pIC50 [1] was 4.68 and the pIC50 [2] was < 4.52.
With `O=C(Nc1ccc(Cl)cc1)N1CCN(c2ccc3nncn3n2)CC1` the pIC50 [1] was < 4.52 and the pIC50 [2] was < 4.52.
`O=C(Nc1ccc(Cl)cc1C(=O)Nc1ccncc1)c1ccc(Cl)cc1Cl` was tested, and the pIC50 [1] was 4.72 and the pIC50 [2] was < 4.52.
For `O=C(NC1CCCC1)c1ccc(N2CCC(NCc3cccc(C(F)(F)F)c3)CC2)cc1`, the pIC50 [1] was < 4.52 and the pIC50 [2] was < 4.52.
For `CCC(=O)Nc1nnc(Cc2ccc(OC)c(OC)c2)s1`, the pIC50 [1] was < 4.52 and the pIC50 [2] was < 4.52.
For `COc1cc(-c2nc(-c3ccc(Sc4ccccc4)cc3)c(-c3ccccc3)[nH]2)cc(OC)c1O`, the pIC50 [1] was 5.23 and the pIC50 [2] was < 4.52.
With `CCOc1ccc(CN2CCN(CC(O)COc3ccc(OCC(O)CN4CCN(Cc5ccc(OCC)cc5)CC4)cc3)CC2)cc1` (stereo unspecified) the pIC50 [1] was < 4.52 and the pIC50 [2] was < 4.52.
In the case of `CCN(CC)S(=O)(=O)c1ccc(-c2csc(Nc3ccc(C)c(C)c3)n2)cc1`, the pIC50 [1] was < 4.52 and the pIC50 [2] was < 4.52.
In the case of `COc1ccc(-c2c(C)nn3c(N)c(C#N)cnc23)cc1OC`, the pIC50 [1] was < 4.52 and the pIC50 [2] was < 4.52.
With `CCN1CCN(c2cc(C)c3cc(NC(=O)c4ccc(OC)c(OC)c4)ccc3n2)CC1` the pIC50 [1] was < 4.52 and the pIC50 [2] was < 4.52.
For `O=C(NCc1ccco1)C1CCN(S(=O)(=O)c2ccc(Cl)cc2)CC1`, the pIC50 [1] was < 4.52 and the pIC50 [2] was < 4.52.
For `Cc1ccc2nc(C)cc(Nc3cccc(C(F)(F)F)c3)c2c1`, the pIC50 [1] was < 4.52 and the pIC50 [2] was < 4.52.
`Oc1c(CN2CCN(c3ccccc3F)CC2)cc(Br)c2cccnc12` was tested, and the pIC50 [1] was < 4.52 and the pIC50 [2] was < 4.52.
`COc1ccc(NC(=O)C2c3ccccc3C(=O)N(CC(C)C)C2c2cccs2)cc1` (stereo unspecified) was tested, and the pIC50 [1] was < 4.52 and the pIC50 [2] was < 4.52.
In the case of `Cc1ccnc(NC(c2cccc(OCc3ccccc3)c2)c2ccc3cccnc3c2O)c1` (stereo unspecified), the pIC50 [1] was < 4.52 and the pIC50 [2] was < 4.52.
For `CCOc1ccc(N2C(N)=NC(N)=NC2(C)C)cc1`, the pIC50 [1] was < 4.52 and the pIC50 [2] was < 4.52.
In the case of `CCCCCCn1c(=N)n(CC(O)COc2cccc(C)c2)c2ccccc21` (stereo unspecified), the pIC50 [1] was < 4.52 and the pIC50 [2] was < 4.52.
With `CCOc1ccc(Nc2ccnc3cc(Cl)ccc23)cc1` the pIC50 [1] was < 4.52 and the pIC50 [2] was < 4.52.
With `CCOC(=O)c1cnc2c(C)cc(C)cc2c1Nc1ccc(OC)c(OC)c1` the pIC50 [1] was < 4.52 and the pIC50 [2] was < 4.52.
With `CCN(CC)CCCNc1ccnc2cc3ccccc3cc12` the pIC50 [1] was < 4.52 and the pIC50 [2] was < 4.52.
In the case of `COc1ccc2c(c1)OC(O)(C(F)(F)C(F)(F)F)CC2=O` (stereo unspecified), the pIC50 [1] was < 4.52 and the pIC50 [2] was < 4.52.
`COc1cccc(NC(=O)Cn2c(C)c(C#N)c3ccccc32)c1` was tested, and the pIC50 [1] was < 4.52 and the pIC50 [2] was < 4.52.
For `Oc1ccccc1CNCC12CC3CC(CC(C3)C1)C2`, the pIC50 [1] was < 4.52 and the pIC50 [2] was < 4.52.
In the case of `COc1ccc(C(C)=O)cc1N1C(=O)C2C(C1=O)C1(c3ccccc3)C(=O)C2(c2ccccc2)C(c2ccc(C)cc2)=C1c1ccc(C)cc1` (stereo unspecified), the pIC50 [1] was < 4.52 and the pIC50 [2] was < 4.52.
For `O=C(Nc1ccccc1O)c1ccc(Oc2cccc(C(=O)Nc3ccccc3O)c2)cc1`, the pIC50 [1] was 4.88 and the pIC50 [2] was < 4.52.
